≈ marks a conversion by molar mass, not a printed value.
Tests used:
HeLa = test: Antiproliferative activity against human HeLa cells measured after 72 hrs by MTT assay; type: functional, cell-based
ECa-109 cell line = test: Antiproliferative activity against human Eca-109 cells measured after 72 hrs by MTT assay; type: functional, cell-based; conditions: ECa-109, 72 h
Bel-7402 = test: Antiproliferative activity against human Bel-7402 cells measured after 72 hrs by MTT assay; type: functional, cell-based; conditions: Bel-7402, 72 h
HepG2 [1] = test: Antiproliferative activity against human HepG2 cells measured after 72 hrs by MTT assay; type: functional, cell-based; conditions: HepG2, 72 h
PANC-1 = test: Antiproliferative activity against human PANC-1 cells measured after 72 hrs by MTT assay; type: functional, cell-based; conditions: PANC-1, 72 h
HepG2 [2] = test: Antiproliferative activity against human HepG2 cells assessed as cell growth inhibition at 1 uM measured after 72 hrs by MTT assay relative to control; type: functional; conditions: read-out: GI
[3] = Selectivity index, ratio of IC50 for human L02 cells to IC50 for human HepG2 cells; type: toxicity; conditions: L02 cells and HepG2 cells, read-out: Ratio IC50
[4] = Cytotoxicity against human L02 cells measured after 72 hrs by MTT assay; type: toxicity, cell-based
[5] = Solubility of the compound in 5% DMSO and 10% Solutol HS-15 saline solution; type: physicochemical

| IC50 (HeLa) [nM] | IC50 (Bel-7402) [nM] | IC50 (HepG2 [1]) [nM] | IC50 (PANC-1) [nM] | SMILES | IC50 (ECa-109 cell line) [nM] | inhibition of growth at 1 µM (HepG2 [2]) [%] | selectivity ratio [3] | IC50 at 72 h [4] [nM] | solubility [5] [µg/mL] |
| --- | --- | --- | --- | --- | --- | --- | --- | --- | --- |
| – | – | – | – | C[C@H]1CCC/C=C/[C@@H]2C[C@H](OC(=O)/C=C/c3ccc4c(c3)OCO4)C[C@H]2[C@H](O)/C=C/C(=O)O1 | – | 3.7 | – | – | – |
| 740 | 640 | 520 | 510 | C[C@H]1CCC/C=C/[C@@H]2C[C@H](O)C[C@H]2[C@H](OC(=O)/C=C/c2ccccc2Br)/C=C/C(=O)O1 | 1140 | 72.5 | – | – | – |
| 750 | 790 | 1020 | 570 | C[C@H]1CCC/C=C/[C@@H]2C[C@H](O)C[C@H]2[C@H](OC(=O)/C=C/c2ccc(F)cc2)/C=C/C(=O)O1 | 1140 | 62 | – | – | – |
| 750 | 1770 | 1860 | 630 | Cc1ccccc1/C=C/C(=O)O[C@@H]1/C=C/C(=O)O[C@@H](C)CCC/C=C/[C@@H]2C[C@H](O)C[C@H]21 | 2680 | 37.1 | – | – | – |
| 1100 | 720 | 890 | 660 | C[C@H]1CCC/C=C/[C@@H]2C[C@H](OC(=O)/C=C/c3cccc(Cl)c3)C[C@H]2[C@H](O)/C=C/C(=O)O1 | 1450 | 68.1 | – | – | – |
| 2790 | 820 | 480 | 860 | C[C@H]1CCC/C=C/[C@@H]2C[C@H](OC(=O)/C=C/c3ccccc3F)C[C@H]2[C@H](O)/C=C/C(=O)O1 | 2420 | 71.1 | – | – | – |
| 570 | 890 | 410 | 280 | C[C@H]1CCC/C=C/[C@@H]2C[C@H](OC(=O)/C=C/c3ccccc3Br)C[C@H]2[C@H](O)/C=C/C(=O)O1 | 500 | 70.5 | – | – | – |
| – | – | – | – | C[C@H]1CCC/C=C/[C@@H]2C[C@H](OC(=O)/C=C/c3ccc4c(c3)OCO4)C[C@H]2[C@H](OC(=O)/C=C/c2ccc3c(c2)OCO3)/C=C/C(=O)O1 | – | 4.3 | – | – | – |
| – | – | – | – | C[C@H]1CCC/C=C/[C@@H]2C[C@H](OC(=O)/C=C/c3ccc(C(F)(F)F)cc3)C[C@H]2[C@H](OC(=O)/C=C/c2ccc(C(F)(F)F)cc2)/C=C/C(=O)O1 | – | 4.3 | – | – | – |
| – | – | – | – | C[C@H]1CCC/C=C/[C@@H]2C[C@H](OC(=O)/C=C/c3ccc(F)cc3)C[C@H]2[C@H](OC(=O)/C=C/c2ccc(F)cc2)/C=C/C(=O)O1 | – | 8.1 | – | – | – |
| 870 | 750 | 560 | 370 | Cc1cccc(/C=C/C(=O)O[C@@H]2/C=C/C(=O)O[C@@H](C)CCC/C=C/[C@@H]3C[C@H](O)C[C@H]32)c1 | 1090 | 77.8 | – | – | – |
| – | – | – | – | C[C@H]1CCC/C=C/[C@@H]2C[C@H](OC(=O)/C=C/c3cccc(Cl)c3)C[C@H]2[C@H](OC(=O)/C=C/c2cccc(Cl)c2)/C=C/C(=O)O1 | – | 6.4 | – | – | – |
| – | – | – | – | Cc1cccc(/C=C/C(=O)O[C@@H]2C[C@@H]3[C@H](/C=C/CCC[C@H](C)OC(=O)/C=C/[C@H]3OC(=O)/C=C/c3cccc(C)c3)C2)c1 | – | 6 | – | – | – |
| 340 | 610 | 510 | 580 | C[C@H]1CCC/C=C/[C@@H]2C[C@H](O)C[C@H]2[C@H](OC(=O)/C=C/c2ccc(C(F)(F)F)cc2)/C=C/C(=O)O1 | 600 | 74.9 | – | – | – |
| – | – | – | – | Cc1ccccc1/C=C/C(=O)O[C@@H]1C[C@@H]2[C@H](/C=C/CCC[C@H](C)OC(=O)/C=C/[C@H]2OC(=O)/C=C/c2ccccc2C)C1 | – | 1.7 | – | – | – |
| 3960 | 1040 | 980 | 670 | C[C@H]1CCC/C=C/[C@@H]2C[C@H](OC(=O)/C=C/c3ccc(F)cc3)C[C@H]2[C@H](O)/C=C/C(=O)O1 | 2860 | 69.7 | – | – | – |
| – | – | – | – | C[C@H]1CCC/C=C/[C@@H]2C[C@H](OC(=O)/C=C/c3ccccc3F)C[C@H]2[C@H](OC(=O)/C=C/c2ccccc2F)/C=C/C(=O)O1 | – | 8.4 | – | – | – |
| – | – | – | – | Cc1ccc(/C=C/C(=O)O[C@@H]2C[C@@H]3[C@H](/C=C/CCC[C@H](C)OC(=O)/C=C/[C@H]3OC(=O)/C=C/c3ccc(C)cc3)C2)cc1 | – | 5.2 | – | – | – |
| 800 | 640 | 730 | 470 | C[C@H]1CCC/C=C/[C@@H]2C[C@H](O)C[C@H]2[C@H](OC(=O)/C=C/c2cccc(Cl)c2)/C=C/C(=O)O1 | 740 | 77.4 | – | – | – |
| 1650 | 1070 | 1350 | 870 | C[C@H]1CCC/C=C/[C@@H]2C[C@H](O)C[C@H]2[C@H](OC(=O)/C=C/c2ccc3c(c2)OCO3)/C=C/C(=O)O1 | 2200 | 54.5 | – | – | – |
| 1050 | 1060 | 1020 | 1000 | C[C@H]1CCC/C=C/[C@@H]2C[C@H](O)C[C@H]2[C@H](OC(=O)/C=C/c2ccccc2F)/C=C/C(=O)O1 | 1660 | 58.3 | – | – | – |
| 1310 | 970 | 1500 | 350 | Cc1ccc(/C=C/C(=O)O[C@@H]2/C=C/C(=O)O[C@@H](C)CCC/C=C/[C@@H]3C[C@H](O)C[C@H]32)cc1 | 3590 | 64 | – | – | – |
| 1120 | 3290 | 1890 | 360 | Cc1cccc(/C=C/C(=O)O[C@@H]2C[C@H]3[C@H](O)/C=C/C(=O)O[C@@H](C)CCC/C=C/[C@@H]3C2)c1 | 2100 | 34.7 | – | – | – |
| – | – | – | – | C[C@H]1CCC/C=C/[C@@H]2C[C@H](OC(=O)/C=C/c3ccc(N(C)C)cc3)C[C@H]2[C@H](O)/C=C/C(=O)O1 | – | 47 | – | – | – |
| – | – | – | – | C[C@H]1CCC/C=C/[C@@H]2C[C@H](OC(=O)/C=C/c3ccccc3)C[C@H]2[C@H](OC(=O)/C=C/c2ccccc2)/C=C/C(=O)O1 | – | 20.4 | – | – | – |
| – | – | – | – | COc1cc(/C=C/C(=O)O[C@@H]2C[C@H]3[C@H](O)/C=C/C(=O)O[C@@H](C)CCC/C=C/[C@@H]3C2)cc(OC)c1OC | – | 4.2 | – | – | – |
| 460 | 450 | 420 | 460 | C[C@H]1CCC/C=C/[C@@H]2C[C@H](OC(=O)/C=C/c3ccc(C(F)(F)F)cc3)C[C@H]2[C@H](O)/C=C/C(=O)O1 | 550 | 86.7 | – | – | – |
| – | – | – | – | COc1cc(/C=C/C(=O)O[C@@H]2C[C@@H]3[C@H](/C=C/CCC[C@H](C)OC(=O)/C=C/[C@H]3OC(=O)/C=C/c3ccc(OCc4ccccc4)c(OC)c3)C2)ccc1OCc1ccccc1 | – | 2.7 | – | – | – |
| – | – | – | – | C[C@H]1CCC/C=C/[C@@H]2C[C@H](OC(=O)/C=C/c3ccccc3Br)C[C@H]2[C@H](OC(=O)/C=C/c2ccccc2Br)/C=C/C(=O)O1 | – | 3.1 | – | – | – |
| – | – | – | – | C[C@H]1CCC/C=C/[C@@H]2C[C@H](OC(=O)/C=C/c3cccc(F)c3)C[C@H]2[C@H](OC(=O)/C=C/c2cccc(F)c2)/C=C/C(=O)O1 | – | 6.3 | – | – | – |

| SMILES | IC50 (HeLa) [nM] | IC50 (Bel-7402) [nM] | IC50 (HepG2 [1]) [nM] | IC50 (PANC-1) [nM] | IC50 (ECa-109 cell line) [nM] | inhibition of growth at 1 µM (HepG2 [2]) [%] | selectivity ratio [3] | IC50 at 72 h [4] [nM] | solubility [5] [µg/mL] |
| --- | --- | --- | --- | --- | --- | --- | --- | --- | --- |
| C[C@H]1CCC/C=C/[C@@H]2C[C@H](O)C[C@H]2[C@H](OC(=O)/C=C/c2ccccc2)/C=C/C(=O)O1 | 1170 | 970 | 570 | 420 | 1120 | 64.7 | – | – | – |
| C[C@H]1CCC/C=C/[C@@H]2C[C@H](O)C[C@H]2[C@H](O)/C=C/C(=O)O1 [BREFELDIN A] | 70 | 170 | 180 | 80 | 140 | 94.4 | 0.56 | 100 | 1000 (≈ 3.57 mM) |
| Cc1ccccc1/C=C/C(=O)O[C@@H]1C[C@H]2[C@H](O)/C=C/C(=O)O[C@@H](C)CCC/C=C/[C@@H]2C1 | > 4000 | 2320 | 2980 | 2790 | > 4000 | 28.9 | – | – | – |
| COc1cc(/C=C/C(=O)O[C@@H]2/C=C/C(=O)O[C@@H](C)CCC/C=C/[C@@H]3C[C@H](O)C[C@H]32)cc(OC)c1OC | 1580 | 1370 | 720 | 820 | 2100 | 65.1 | – | – | – |
| Cc1ccc(/C=C/C(=O)O[C@@H]2C[C@H]3[C@H](O)/C=C/C(=O)O[C@@H](C)CCC/C=C/[C@@H]3C2)cc1 | 1910 | 2140 | 2870 | 1350 | 12500 | 30.8 | – | – | – |
| C[C@H]1CCC/C=C/[C@@H]2C[C@H](OC(=O)/C=C/c3cccc(F)c3)C[C@H]2[C@H](O)/C=C/C(=O)O1 | 2740 | 920 | 450 | 610 | 2140 | 71.1 | – | – | – |
| C[C@H]1CCC/C=C/[C@@H]2C[C@H](OC(=O)/C=C/c3ccccc3)C[C@H]2[C@H](O)/C=C/C(=O)O1 | 530 | 1110 | 1250 | 570 | 1210 | 62.9 | – | – | – |
| C[C@H]1CCC/C=C/[C@@H]2C[C@H](O)C[C@H]2[C@H](OC(=O)/C=C/c2cccc(F)c2)/C=C/C(=O)O1 | 700 | 810 | 490 | 360 | 950 | 68.3 | – | – | – |

From ChEMBL document CHEMBL5113500, “New brefeldin A-cinnamic acid ester derivatives as potential antitumor agents: Design, synthesis and biological evaluation” (Eur J Med Chem, 2022)
